Measured values as given in ChEMBL document CHEMBL1201862, “PubChem BioAssay data set” (2004).
Calls of active or inactive are those of the source.

Experiments:
cells [1] = type: functional, cell-based
cells [2] = type: functional, cell-based; remark: listed apart in the source
cells [3] = type: functional, cell-based; remark: listed apart in the source
cells [4] = type: functional, cell-based; remark: listed apart in the source
Major prion protein = Major prion protein (Homo sapiens, UniProt P04156); type: functional, cell-based
cells [5] = assay: cells
[6] = molecular target: T1, Endoribonuclease toxin MazF (Escherichia coli K-12, UniProt P0AE70); assay: substrate-only fluorescence increase artefacts – biochemical, single-stranded RNase substrate, counter-screen for MazEF activator project, dose response (AID 588502); type: functional
T1 sequence (P0AE70 whole entry): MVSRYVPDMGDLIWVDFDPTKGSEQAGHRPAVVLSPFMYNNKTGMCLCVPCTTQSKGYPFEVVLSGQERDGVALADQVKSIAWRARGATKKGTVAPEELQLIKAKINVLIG

[7] = molecular target: T1, Endoribonuclease toxin MazF; assay: activation of MazEF endoribonuclease cleavage – biochemical, fluorescence, single-stranded RNA substrate, uHTS hits, dose response (AID 588481); type: functional
[8] = molecular target: T2, Sentrin-specific protease 1 (Homo sapiens, UniProt Q9P0U3); assay: Dose response confirmation of small molecule inhibitors of the catalytic domain of the SUMO protease, SENP1 in a FRET assay.; type: functional; conditions: read-out: IC50_Mean
T2 sequence (Q9P0U3 whole entry): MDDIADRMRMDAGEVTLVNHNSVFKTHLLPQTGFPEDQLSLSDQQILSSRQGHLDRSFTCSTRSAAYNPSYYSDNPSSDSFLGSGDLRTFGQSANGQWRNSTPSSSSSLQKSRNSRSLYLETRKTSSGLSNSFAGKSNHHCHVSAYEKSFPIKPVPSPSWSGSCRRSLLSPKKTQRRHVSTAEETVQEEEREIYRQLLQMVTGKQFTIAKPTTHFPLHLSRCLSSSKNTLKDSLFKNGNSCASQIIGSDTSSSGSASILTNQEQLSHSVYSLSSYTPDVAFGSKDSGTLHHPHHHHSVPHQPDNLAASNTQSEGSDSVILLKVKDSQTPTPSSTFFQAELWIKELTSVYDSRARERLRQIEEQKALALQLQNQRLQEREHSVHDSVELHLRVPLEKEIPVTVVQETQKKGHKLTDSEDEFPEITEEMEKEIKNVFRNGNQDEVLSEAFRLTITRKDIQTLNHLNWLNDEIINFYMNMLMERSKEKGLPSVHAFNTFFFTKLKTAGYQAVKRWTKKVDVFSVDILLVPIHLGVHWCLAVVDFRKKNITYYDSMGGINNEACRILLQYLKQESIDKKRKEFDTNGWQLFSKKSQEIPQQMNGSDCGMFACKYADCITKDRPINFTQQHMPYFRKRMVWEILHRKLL

Galanin receptor type 3 = Galanin receptor type 3 (Homo sapiens, UniProt O60755); assay: Fluorescence-based cell-based primary high throughput dose response assay to identify antagonists of the Galanin Receptor 3 (GalR3).; type: functional
cells [9] = type: functional, cell-based; conditions: HEK-CNG
[10] = general mammalian cell viability loss – inhibitor set, cherry-pick, set 2, cytotoxicity control for miR-122 modulator project, dose response (AID 720697); type: functional, cell-based
[11] = molecular target: T3, Tyrosyl-DNA phosphodiesterase 2 (Homo sapiens, UniProt O95551); assay: potency against TDP2 phosphodiesterase activity – biochemical, epi absorbance, IC50, dose response (AID 743297)
T3 sequence (O95551 whole entry): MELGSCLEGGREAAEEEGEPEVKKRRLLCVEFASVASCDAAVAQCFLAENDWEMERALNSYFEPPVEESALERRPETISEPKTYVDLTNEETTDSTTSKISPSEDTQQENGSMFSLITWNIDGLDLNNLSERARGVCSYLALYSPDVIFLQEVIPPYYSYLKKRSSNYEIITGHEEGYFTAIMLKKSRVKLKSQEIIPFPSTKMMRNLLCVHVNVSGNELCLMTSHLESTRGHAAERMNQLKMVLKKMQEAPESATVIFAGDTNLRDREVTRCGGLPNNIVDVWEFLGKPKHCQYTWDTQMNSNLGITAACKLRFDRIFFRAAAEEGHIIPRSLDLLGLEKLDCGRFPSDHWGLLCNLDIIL

[12] = molecular target: T4, Rac GTPase-activating protein 1 (Homo sapiens, UniProt Q9H0H5); assay: blockers of MgcRacGAP-driven Rac1 GTP hydrolysis – biochemical, ADP Hunter fluorescence, primary and confirmatory, confirmation (AID 624330); type: functional
T4 sequence (Q9H0H5 whole entry): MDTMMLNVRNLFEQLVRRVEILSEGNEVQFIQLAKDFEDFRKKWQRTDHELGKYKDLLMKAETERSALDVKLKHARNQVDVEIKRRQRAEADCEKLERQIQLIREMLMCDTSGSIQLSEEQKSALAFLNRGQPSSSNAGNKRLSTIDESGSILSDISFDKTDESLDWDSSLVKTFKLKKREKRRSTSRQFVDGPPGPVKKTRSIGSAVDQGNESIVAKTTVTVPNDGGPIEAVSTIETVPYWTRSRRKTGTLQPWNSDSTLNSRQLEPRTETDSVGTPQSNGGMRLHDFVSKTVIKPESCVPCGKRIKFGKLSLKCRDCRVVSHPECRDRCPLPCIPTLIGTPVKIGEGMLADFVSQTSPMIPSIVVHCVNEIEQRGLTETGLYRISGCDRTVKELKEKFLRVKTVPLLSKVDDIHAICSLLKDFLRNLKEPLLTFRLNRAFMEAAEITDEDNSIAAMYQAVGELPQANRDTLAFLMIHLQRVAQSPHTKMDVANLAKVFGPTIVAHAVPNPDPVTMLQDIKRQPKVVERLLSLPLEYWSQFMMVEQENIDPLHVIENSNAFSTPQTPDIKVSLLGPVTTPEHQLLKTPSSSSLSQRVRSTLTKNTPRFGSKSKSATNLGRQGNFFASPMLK

[13] = viability loss in HeLa cells – cytotoxicity control for MgcRacGAP inhibitor project, dose response (AID 624300); type: functional
[14] = molecular target: T5, Histone-lysine N-methyltransferase NSD2 (Homo sapiens, UniProt O96028); type: biochemical
T5 sequence (O96028 whole entry): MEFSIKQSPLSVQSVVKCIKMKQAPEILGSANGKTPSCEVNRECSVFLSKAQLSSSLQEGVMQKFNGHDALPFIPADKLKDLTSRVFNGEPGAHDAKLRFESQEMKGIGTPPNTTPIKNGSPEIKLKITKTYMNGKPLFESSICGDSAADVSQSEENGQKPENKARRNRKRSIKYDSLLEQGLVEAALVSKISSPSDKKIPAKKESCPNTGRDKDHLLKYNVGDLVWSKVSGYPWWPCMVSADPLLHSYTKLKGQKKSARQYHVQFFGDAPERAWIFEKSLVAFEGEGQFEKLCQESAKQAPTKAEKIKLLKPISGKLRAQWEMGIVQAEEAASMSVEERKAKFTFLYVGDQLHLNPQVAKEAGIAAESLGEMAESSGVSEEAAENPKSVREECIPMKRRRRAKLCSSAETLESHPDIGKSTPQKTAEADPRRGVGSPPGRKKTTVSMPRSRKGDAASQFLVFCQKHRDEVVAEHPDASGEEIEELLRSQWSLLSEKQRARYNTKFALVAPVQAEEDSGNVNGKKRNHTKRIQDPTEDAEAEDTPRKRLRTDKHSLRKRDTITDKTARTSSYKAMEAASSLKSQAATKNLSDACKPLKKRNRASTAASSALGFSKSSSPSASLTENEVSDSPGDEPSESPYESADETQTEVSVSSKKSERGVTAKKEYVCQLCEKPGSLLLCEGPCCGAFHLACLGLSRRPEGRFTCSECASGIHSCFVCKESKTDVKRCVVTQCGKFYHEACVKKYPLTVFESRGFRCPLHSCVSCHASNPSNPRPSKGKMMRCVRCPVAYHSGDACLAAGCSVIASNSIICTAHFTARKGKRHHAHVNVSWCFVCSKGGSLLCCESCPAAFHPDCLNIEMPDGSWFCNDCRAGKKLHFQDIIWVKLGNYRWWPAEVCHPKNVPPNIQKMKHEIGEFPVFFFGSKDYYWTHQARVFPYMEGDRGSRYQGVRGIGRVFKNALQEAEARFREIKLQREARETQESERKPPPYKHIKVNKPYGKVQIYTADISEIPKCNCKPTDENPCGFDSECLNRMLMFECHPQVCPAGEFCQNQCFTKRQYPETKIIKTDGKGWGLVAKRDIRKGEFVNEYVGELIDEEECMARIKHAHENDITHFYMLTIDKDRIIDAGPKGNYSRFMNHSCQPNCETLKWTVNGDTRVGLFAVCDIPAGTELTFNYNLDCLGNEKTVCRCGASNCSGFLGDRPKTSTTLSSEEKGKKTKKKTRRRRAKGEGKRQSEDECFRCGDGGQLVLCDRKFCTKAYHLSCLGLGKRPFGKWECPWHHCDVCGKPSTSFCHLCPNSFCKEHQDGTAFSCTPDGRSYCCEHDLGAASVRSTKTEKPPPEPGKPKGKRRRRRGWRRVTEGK

[15] = bead-based luminescence quenchers, dual-tagged ARNT – biochemical, AlphaScreen, cherry-pick, artefact control for ARNT-TACC3 interaction inhibitor project, dose response (AID 651705); type: functional;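 further: AlphaScreen bead proximity signal that flags compounds interfering with the detection technology; potency reflects signal decrease which marks the compound as an assay artifact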

## CCN1CN(CCc2ccccc2)CN=C1S
Cells [1]
  EC50: > 350 µM (not active)
Cells [2]
  EC50: > 29.9 µM (inactive)
Cells [3]
  EC50: > 350 µM (not active)
Cells [4]
  IC50: > 29.9 µM (inactive)

## Brc1cc(Br)c2nc3c(cc2c1)CCC3
Major prion protein
  IC50: 5.89 µM (active)
Cells [5]
  IC50: > 138 µM (inactive)

## Oc1ccc(Cl)cc1C1=Nc2ccccc2N=C(c2ccco2)C1
[6]
  EC50: > 99 µM (inactive)
[7]
  EC50: > 99 µM (inactive)
[8]
  IC50: 8.31 µM (active)

## CSc1ccc(CN2CCN(C(=O)c3ccc([N+](=O)[O-])cc3)CC2)cc1
Galanin receptor type 3
  IC50: 1.91 µM (active)
Cells [9]
  EC50: > 29.9 µM (inactive)

## C=CCNC(=S)NNC(=O)Cn1c(-c2ccccc2)cc(=O)n2ncnc12
[10]
  AC50: 4.83 µM (active)

## COc1cc(CCNC2=CC(=O)c3ncccc3C2=O)ccc1O
[11]
  IC50: 67.8 µM (inactive)
[12]
  IC50: 62.2 µM (active)
[13]
  CC50: 21.3 µM (active)
[14]
  AC50: 1.24 µM (active)
[15]
  AC50: 82.2 µM (active)
